According to US8846345B2, “Recombinant cell line” (The Queen's University of Belfast, priority 2002, dated 2014):

B1: IL-12 β-chain (p40), carboxyterminally hexahistidine-tagged (HIBERNIA.1 cells, pIND(SP1)-p40H) (ligand)
chain: IWELKKDVYVVELDWYPDAPGEMVVLTCDTPEEDGITWTLDQSSEVLGSGKTLTIQVKEFGDAGQYTCHKGGEVLSHSLLLLHKKEDGIWSTDILKDQKEPKNKTFLRCEAKNYSGRFTCWWLTTISTDLTFSVKSSRGSSDPQGVTCGAATLSAERVRGDNKEYEYSVECQEDSACPAAEESLPIEVMVDAVHKLKYENYTSSFFIRDIIKPDPPKNLQLKPLKNSRQVEVSWEYPDTWSTPHSYFSLTFCVQVQGKSKREKKDRVFTDKTSATVICRKNASISVRAQDRYYSSSWSEWASVPCSHHHHHH
notes: mature; Secreted by HIBERNIA.1 cells as a monomer (about 40 kD) and as a disulfide-bonded homodimer (about 80 kD); also called β chain homodimer (80 kD form)
B2: IL-12 α-chain (p35), carboxyterminal hexahistidine-tagged (ligand)
chain: RNLPVATPDPGMFPCLHHSQNLLRAVSNMLQKARQTLEFYPCTSEEIDHEDITKDKTSTVEACLPLELTKNESCLNSRETSFITNGSCLASRKTSFMMALCLSSIYEDLKMYQVEFKTMNAKLLMDPKRQIFLDQNMLAVIDELMQALNFNSETVPQKSSLEEPDFYKTKIKLCILLHAFRIRAVTIDRVMSYLNASHHHHHH
notes: mature; Expressed in EcR293 or HIBERNIA.1 cells from pIND-p35H or pIND(SP1)-p35H; N-glycosylated; also called p35H; His-tagged α-chain

What was measured:
EcR293 cells = assay: MTT cytotoxicity test; assay type: cell-based, human
Method: The mitochondrial ...MTT test is widely use as a cytotoxicity test. This test is principally based on the propensity of mitochondrial dehydrogenases to cleave the tetrazolium ring of. The viability of cells is proportional to the activity of mitochondrial dehydrogenases. Cleavage of the tetrazolium ring results in the formation of purple formazan crystals. We used the MTT assay to quantify cytotoxicity of celecoxib on EcR293 cells. The test was performed in 96-well plates in which 10^5 cells per well were plated the day before application of the MTT test. Following addition of celecoxib to the culture medium, cells were induced by ponasterone A, as explained before. After 16 hours of induction, the MTT reagent (10 μl of 100 mg/ml stock solution) was added to the cells. Two hours later, the medium was removed, and the cells were dissolved in DMSO. DMSO solubilizes formazan crystals. Absorbance was measured at 550 nm using a 96-well plate spectrophotometer.

[1] = system: IL-12 α and β monomer forms; assay: Inhibitor assay: secretion of IL-12 α and β monomer forms; details: 16 hr treatment
mRNA of IL-12 = assay: Effect on IL-12 mRNA; assay type: cell-based, human
[2] = molecular target: the molecule itself; assay: non-reducing SDS-PAGE and anti-β-chain immunoblot of secreted fraction
[3] = molecular target: the molecule itself; assay: non-reducing SDS-PAGE of medium of recombinant cell lines secreting the α chain
[4] = molecular target: B1; assay: co-expression; non-reducing and reducing SDS-PAGE with anti-α-chain and anti-β-chain immunoblots

Molecule: CNc1ccc2oc(C[C@H]3O[C@@]4(CC[C@H]3C)O[C@H]([C@H](C)C(=O)c3ccc[nH]3)[C@H](C)C[C@H]4C)nc2c1C(=O)O [A23187]
concentration at which toxicity was observed (MTT test) (EcR293 cells; 16 hr test period): > 10 µM
secretion of IL-12 α and β monomer forms [1]: suppressed by neither

Molecule: Cc1ccc(-c2cc(C(F)(F)F)nn2-c2ccc(S(N)(=O)=O)cc2)cc1 [Celecoxib, 4-[5-(4-methylpheny)-3-(trifluoromethyl)-IH-pyrazol-I-yl]benzenesulfonamide]
concentration at which toxicity was observed (MTT test) (EcR293 cells; human, 16 h): ≥ 100 µM
effect on mRNA of IL-12 (mRNA of IL-12): no effect

Molecule: C/C=C(/C)C(=O)O[C@H]1C(C)=C2[C@H]([C@@H]1OC(=O)CCCCCCC)[C@@](C)(OC(C)=O)C[C@H](OC(=O)CCC)[C@@]1(O)[C@H]2OC(=O)[C@@]1(C)O [thapsigargin]
concentration at which toxicity was observed (MTT test) (EcR293 cells; human, 16 h): 5 to 10 µM
secretion of IL-12 α and β monomer forms [1]: suppressed by neither

Molecule: B1
binding result [2]: binds

Molecule: B2
binding result [3]: no binding
binding result [4]: binds
